Measured values from patent US20200360318A1, “COMPOSITIONS AND METHODS FOR INCREASING THE POLLINATION PERFORMANCE OF BEES” (Beeflow Corporation, priority 2019, published 2020).

Assay: ABA content in fifth instar larvae of colonies fed ABA syrup
Assay type: in vivo, honey bees
Details: 10 μM ABA in sucrose syrup (2:1); fifth instar larvae (L5), two months after starting treatment
Experimental: ABA was added to sucrose syrup (2:1, sucrose:water) to achieve a concentration of 10 μM ABA. Two groups of small colonies of honey bees were used to test if the compound was reaching the bee larvae. One group of colonies was exposed to the solution by way of adding the solution to feed the bees in the beehive, while the other was not. In order to corroborate that the ABA supplemented in the syrup actually reached the larvae, the ABA content was measured in fifth instar larvae (L5) two months after starting treatment.

Structure (SMILES): CC1=CC(=O)CC(C)(C)[C@@]1(O)/C=C/C(C)=C\C(=O)O [ABA, (2Z,4E)-5-[(1S)-1-hydroxy-2,6,6-trimethyl-4-oxocyclohex-2-en-1-yl]-3-methylpenta-2,4-dienoic acid]
- concentration of ABA in larvae compared to the control colony: 28 x
